6 compounds from patent publication US10806746B2, “Di- and tri-cationic glycosylated antitumor ether lipids, L-gucosylated gaels and rhamnose-linked gaels as cytotoxic agents against epithelial cancer cells and cancer stem cells” (The University of Manitoba, priority 2014, dated 2020) can be followed below.

Read-outs that look alike come from different tables or passages of the source. Where only a bound is given, the exact number is not on record here.

What all share (format): cell-based, human
Series [1] deals with BT-474, JIMT-1, MDA-MB-231 (breast), DU145, PC3 (prostate), MiaPaCa2 (pancreas). The experiment in a line: MTS viability, panel of epithelial cancer cell lines (ranges over the cell lines). As to conditions: for CC50: read-out: CC50 values, range depending on the cell line. The protocol: To determine the effect of compounds 1-10 on the viability of the epithelial cancer cell lines, exponentially growing cells, BT-474, JIMT-1, MDA-MB-231 (breast), DU145, PC3 (prostate), MiaPaCa2 (pancreas) were incubated with varying concentrations of 1-8 (0-30 μM) for 48 h followed by viability assays with the MTS reagent.
The effects of the GAELs on the viability of the various epithelial cancer cell lines was determined as previously described. Briefly, equal numbers of the cells were dispersed into 96-well plates. After 24 h, the cells were incubated with the compounds (0-30 μM) for 48 h. At the end of the incubation, MTS reagent (20% vol/vol) was added and the plates were incubated for 1-4 h. The OD490 was read with a plate reader. Wells with media but no cells were treated in similar fashion and the values utilized as blank. The results represent the mean±standard deviation of 6 independent determinations.

The next series deals with PC3 cells. In words: MTS viability assay, PC3 prostate cancer cells. In outline: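 PC3 cells in F12K with 10% FBS were exposed to compounds (0-30 μM) for 48 h, starting 24 h after seeding. Viability was read by MTS reagent (20% vol/vol, 1-4 h) at OD490, blanked against cell-free wells; mean±SD of 6 independent determinations.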
Another series has as its system DU145 cells. The experiment in a line: MTS viability assay, DU145 prostate cancer cells. In outline:
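DU145 cells in DMEM + 10% FBS plated 24 h, then treated with compounds (0–30 μM) for 48 h. Viability by MTS (20% vol/vol, 1–4 h) read at OD490 against cell-free blanks; mean±SD of 6 determinations.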
Background: Formazan colour is commonly taken as a measure of viable cells.

For the next series, the system named is MDA-MB-231 cells. In words: MTS viability assay, MDA-MB-231 breast cancer cells. In outline:
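MDA-MB-231 cells in DMEM with 10% FBS, plated 24 h, then exposed to compounds (0-30 μM) for 48 h. MTS reagent (20% vol/vol) added for 1-4 h and OD490 read against cell-free blanks; mean±SD of 6 independent determinations.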

In the next series the test system is MiaPaCa2 cells. In words: MTS viability assay, MiaPaCa2 pancreas cancer cells. The gist of the method: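 Cells in DMEM with 10% FBS and 2.5% horse serum were plated 24 h, then exposed to compounds (0-30 μM) for 48 h. MTS reagent (20% vol/vol) added for 1-4 h, OD490 read against cell-free blanks; mean±SD of 6 independent determinations.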
Where [2] appears, read: Homo sapiens, range over the cell lines tested, 48 h.
[3] abbreviates: Homo sapiens, PC-3, Table 5, 48 h, MTS, read-out: CC50 PC3.
Where [4] appears, read: Homo sapiens, PC-3, Table 5, 48 h, MTS, read-out: CC90 PC3.
Where [5] appears, read: Homo sapiens, DU-145, Table 5, 48 h, read-out: CC50 DU-145.
Setting [6] is: Homo sapiens, DU-145, Table 5, 48 h, read-out: CC90 DU-145.
Setting [7] is: Homo sapiens, MDA-MB-231, Table 5, 48 h, read-out: CC50 MDA-MB-231.
The mark [8] stands for this setting: Homo sapiens, MDA-MB-231, Table 5, 48 h, read-out: CC90 MDA-MB-231.
[9] abbreviates: Homo sapiens, MIA PaCa-2, Table 5, 48 h, read-out: CC50 Mlapaca2.
Where [10] appears, read: Homo sapiens, MIA PaCa-2, Table 5, 48 h, read-out: CC90 Mlapaca2.
Where [11] appears, read: range over the cell lines tested, 48 h.
Where [12] appears, read: Table 1A, 48 h, MTS, read-out: CC50 values PC3.
The mark [13] stands for this setting: Table 1B, 48 h, MTS, read-out: CC90 values PC3.
Setting [14] is: Table 1A, 48 h, read-out: CC50 values DU 145.
Setting [15] is: Table 1B, 48 h, read-out: CC90 values DU 145.
The mark [16] stands for this setting: Table 1A, 48 h, read-out: CC50 values MD 231.
[17] abbreviates: Table 1B, 48 h, read-out: CC90 values MD 231.
Setting [18] is: Table 1A, 48 h, read-out: CC50 values MiaPaCa2.
[19] abbreviates: Table 1B, 48 h, read-out: CC90 values MiaPaCa2.

As usually defined, the CC50 is the concentration at which the toxic effect on the cells reaches its halfway point. Turning to `CCCCCCCCCCCCCCCCOC[C@H](CO[C@H]1O[C@H](CN)[C@@H](O)[C@H](O)[C@H]1N)OC` [Compound 1, 1-O-Hexadecyl-2-O-methyl-3-O-(2′,6′-diamino-2′,6′-dideoxy-α-D-glucopyranosyl)-sn-glycerol], the cytotoxic concentration (CC50) in series [1] (setting [2]) was 3 to 7.5 µM; with PC3 cells (Homo sapiens, PC-3, Table 1A, 48 h, MTS, read-out: CC50 values PC3) it was 3.5 µM; in the series with PC3 cells (setting [3]), 3.5 µM; in the series with DU145 cells (Homo sapiens, DU-145, Table 1A, 48 h, read-out: CC50 values DU 145) it was 5.2 µM; in the series with DU145 cells (setting [5]), 5.2 µM; with MDA-MB-231 cells (Homo sapiens, MDA-MB-231, Table 1A, 48 h, read-out: CC50 values MD 231) it was 3 µM. The half-maximal cytotoxic concentration (CC50) in the series on MDA-MB-231 cells (setting [7]) was 3 µM; in the series on MiaPaCa2 cells (Homo sapiens, MIA PaCa-2, Table 1A, 48 h, read-out: CC50 values MiaPaCa2) it was 3.5 µM; in the series on MiaPaCa2 cells (setting [9]), 3.5 µM. Besides, the CC90 in series [1] (Homo sapiens, range over the cell lines tested, 48 h, read-out: CC90 (90% loss of cell viability), range depending on cell lines) is 4.5 to 9.5 µM; in the series with PC3 cells (Homo sapiens, PC-3, Table 1B, 48 h, MTS, read-out: CC90 values PC3) it was 6 µM; with PC3 cells (setting [4]) it was 6 µM; in the series with DU145 cells (Homo sapiens, DU-145, Table 1B, 48 h, read-out: CC90 values DU 145) it was 7.4 µM; with DU145 cells (setting [6]), 7.4 µM; in the series on MDA-MB-231 cells (Homo sapiens, MDA-MB-231, Table 1B, 48 h, read-out: CC90 values MD 231), 4.5 µM. In addition, the CC90 worked out at 4.5 µM with MDA-MB-231 cells (setting [8]); 6.5 µM in the series on MiaPaCa2 cells (Homo sapiens, MIA PaCa-2, Table 1B, 48 h, read-out: CC90 values MiaPaCa2); 6.5 µM with MiaPaCa2 cells (setting [10]).
As for `CCCCCCCCCCCCCCCCOCCCO[C@@H]1O[C@H](CN)[C@@H](O)[C@H](O)[C@H]1N` [Compound 4, 1-O-Hexadecyl-2-deoxy-3-O-(2′6′-diamino-2′,6′-dideoxy-β-D-glucopyranosyl)-sn-glycerol], the CC50 in series [1] (setting [11]) was 4 to 8.5 µM; in the series on PC3 cells (setting [12]) it was 8 µM; in the series on DU145 cells (setting [14]) it was 6 µM; in the series on MDA-MB-231 cells (setting [16]), 4.5 µM; in the series with MiaPaCa2 cells (setting [18]) it was 6.5 µM. Moreover, the CC90 with PC3 cells (setting [13]) worked out at 14 µM; with DU145 cells (setting [15]) it was 8.5 µM; in the series with MDA-MB-231 cells (setting [17]) it was 7 µM; in the series with MiaPaCa2 cells (setting [19]), 13 µM.
Take `CCCCCCCCCCCCCCCCOCC(CO[C@@H]1O[C@H](CN)[C@@H](O)[C@H](O)[C@H]1N)O[C@@H]1O[C@H](CN)[C@@H](O)[C@H](O)[C@H]1N` (stereo partly drawn) [Compound 5, 1-O-Hexadecyloxy-2S/R, 3-di(-2′,6′-diamino-2′, 6′-dideoxy-β-D-glucopyranosyl)-glycerol]: the CC50 (in series [1] (setting [11]); in the series with PC3 cells (setting [12]); in the series on DU145 cells (setting [14]); in the series with MDA-MB-231 cells (setting [16]); in the series on MiaPaCa2 cells (setting [18])) was > 30 µM each time. The CC90 with PC3 cells (setting [13]), in the series on DU145 cells (setting [15]), in the series with MDA-MB-231 cells (setting [17]) and in the series on MiaPaCa2 cells (setting [19]) was > 30 µM each time.
As for `CCCCCCCCCCCCCCCCOC[C@@H](CN=[N+]=[N-])O[C@@H]1O[C@H](CO)[C@@H](O)[C@H](O)[C@H]1N` [Compound 6, 1-O-Hexadecyloxy-2R-(2′-amino-2′-deoxy-β-D-glucopyranosyl)-3-azido glycerol], the half-maximal cytotoxic concentration (CC50) was 6 to 22 µM in series [1] (setting [11]); 6 µM with PC3 cells (setting [12]); 6 µM in the series with PC3 cells (read-out: CC50 against PC-3 cell lines); 12.5 µM in the series on DU145 cells (setting [14]); 11 µM with MDA-MB-231 cells (setting [16]); 11.5 µM in the series with MiaPaCa2 cells (setting [18]). The CC90 was 15 µM with PC3 cells (setting [13]), 18 µM in the series with DU145 cells (setting [15]), 15 µM in the series with MDA-MB-231 cells (setting [17]) and 18.5 µM in the series with MiaPaCa2 cells (setting [19]).
On to `CCCCCCCCCCCCCCCCOCC(CO[C@@H]1OC(CO)[C@H](O)[C@H](O)C1N)OC` (stereo partly shown) [Compound 69], for which the CC50 in series [1] (setting [2]) is 6.5 to 12.5 µM; in the series with PC3 cells (Homo sapiens, PC-3, Table 2A, 48 h, MTS, read-out: CC50 values PC3), 12.5 µM; in the series with PC3 cells (setting [3]), 12.5 µM; in the series on DU145 cells (Homo sapiens, DU-145, Table 2A, 48 h, read-out: CC50 values DU 145), 12.5 µM; with DU145 cells (setting [5]) it was 12.5 µM; with MDA-MB-231 cells (Homo sapiens, MDA-MB-231, Table 2A, 48 h, read-out: CC50 values MDA-MB-231), 11 µM. Besides, the CC50 in the series with MDA-MB-231 cells (setting [7]) was 11 µM; in the series with MiaPaCa2 cells (Homo sapiens, MIA PaCa-2, Table 2A, 48 h, read-out: CC50 values MiaPaCa2), 7.5 µM; with MiaPaCa2 cells (setting [9]), 7.5 µM. The CC90 in the series on PC3 cells (Homo sapiens, PC-3, Table 2B, 48 h, MTS, read-out: CC90 values PC3) worked out at 16 µM; with PC3 cells (setting [4]), 16 µM; with DU145 cells (Homo sapiens, DU-145, Table 2B, 48 h, read-out: CC90 values DU 145), 16 µM; in the series with DU145 cells (setting [6]), 16 µM; with MDA-MB-231 cells (Homo sapiens, MDA-MB-231, Table 2B, 48 h, read-out: CC90 values MDA-MB-231) it was 17 µM; in the series with MDA-MB-231 cells (setting [8]), 17 µM. The CC90 was found to be 18 µM in the series with MiaPaCa2 cells (Homo sapiens, MIA PaCa-2, Table 2B, 48 h, read-out: CC90 values MiaPaCa2) and 18 µM in the series with MiaPaCa2 cells (setting [10]).
On to `CCCCCCCCCCCCCCCCOC[C@H](COC1O[C@H](CNCCCCCCCCCCCCN)[C@@H](O)[C@H](O)[C@H]1N)OC` (stereo partly shown) [Compound 73, 1-O-Hexadecyl-2-O-methyl-3-O-[6′-N-(12-aminododecyl)-2′,6′-diamino-2′,6′-dideoxy-glucopyranoside]-sn-glycerol], for which the CC50 in series [1] (setting [11]) is 1.5 to 4 µM; in the series on PC3 cells (Table 6, 48 h, MTS, read-out: PC3 CC50), 2 µM; with DU145 cells (Table 6, 48 h, read-out: DU145 CC50) it was 3.8 µM; in the series on MDA-MB-231 cells (Table 6, 48 h, read-out: MB-MDA-231 CC50), 1.5 µM; with MiaPaCa2 cells (Table 6, 48 h, read-out: MiaPaCa2 CC50), 4 µM. Moreover, the “cytotoxicity against all cell lines examined” value in series [1] (tricationic GAELs, FIG. 2O, Table 6) is “cytotoxic”. Also, the CC90 is 3.2 µM in the series with PC3 cells (Table 6, 48 h, MTS, read-out: PC3 CC90); 4.8 µM in the series on DU145 cells (Table 6, 48 h, read-out: DU145 CC90); 3.8 µM in the series with MDA-MB-231 cells (Table 6, 48 h, read-out: MB-MDA-231 CC90); 6.6 µM in the series with MiaPaCa2 cells (Table 6, 48 h, read-out: MiaPaCa2 CC90).
